Data published in article PMC7269337, “Spiro-containing derivatives show antiparasitic activity against Trypanosoma brucei through inhibition of the trypanothione reductase enzyme” (PLoS Neglected Tropical Diseases, 2020).
Values after ≈ are worked out from the molar mass of the structure shown. Read-outs that look alike come from different tables or passages of the source.

Key:
[1] = target: T1, human glutathione reductase (hGR) (Homo sapiens, UniProt P00390); experiment: human glutathione reductase (hGR) activity assay; type: biochemical
T1 construct: purchased Sigma-Aldrich
T1 sequence (P00390 44-522): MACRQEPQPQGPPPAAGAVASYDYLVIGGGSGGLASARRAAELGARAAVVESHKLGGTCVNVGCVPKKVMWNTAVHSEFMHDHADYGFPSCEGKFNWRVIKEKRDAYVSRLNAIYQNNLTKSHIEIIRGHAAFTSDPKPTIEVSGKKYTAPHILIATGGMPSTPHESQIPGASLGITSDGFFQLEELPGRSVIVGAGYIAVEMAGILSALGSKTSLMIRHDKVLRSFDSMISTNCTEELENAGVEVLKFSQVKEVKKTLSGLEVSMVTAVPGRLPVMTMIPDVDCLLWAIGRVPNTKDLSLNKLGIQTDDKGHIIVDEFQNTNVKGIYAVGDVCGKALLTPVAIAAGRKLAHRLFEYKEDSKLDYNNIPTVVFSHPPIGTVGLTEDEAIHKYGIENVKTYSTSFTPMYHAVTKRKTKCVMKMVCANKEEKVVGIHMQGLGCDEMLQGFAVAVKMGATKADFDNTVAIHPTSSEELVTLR
Method: (§1) Compounds from 10 mM stock solutions were transferred to assay plates by acoustic transfer (EDC Biosystems, Milmont, CA). The TbTR luminescent assay was performed in 384-well white plate (Greiner Bio One, Frickenhausen, Germany). The following components were added to the plates to a final volume of 30 μL: 0.1 nM TR, 20 μM NADPH, 10 μM TS2 in 50 mM HEPES (pH 7.4), 40 mM NaCl, 0.01% BSA. After 60 min of incubation at room temperature the residual amount of NADPH was measured by addition of an equal volume of NADPH-Glo as per the manufacturer’s protocol and the luminescent signal was acquired by an EnVision plate reader (PerkinElmer, Waltham, MA). […] After 10 minutes of incubation at room temperature the absorbance signal (412 nm) was detected using the Safire2 plate reader (Tecan, Switzerland). […] Results were analyzed using Prism software (GraphPad, San Diego, CA) and Vortex (Dotmatics, Bioshops Stortford, UK). […]
(§2) L. infantum TR was cloned and purified as previously described.[1] […] After 60 min of incubation at room temperature, an equal volume of NADPH-Glo reagent was added and the luminescent signal was acquired by an EnVision plate reader […]
(§3) after 30 minute (Figure S1) according to the reagent data sheet. […] The absorbance signal (412 nm) was acquired 15 minutes post incubation at room temperature using the plate reader (Safire2, Tecan, Switzerland). […]

[2] = target: T2, TbTR (Trypanosoma brucei trypanothione reductase) (Trypanosoma brucei brucei, UniProt P39051); experiment: TbTR luminescent (NADPH-Glo) enzyme assay; type: biochemical
T2 construct: the gene coding for the enzyme (aa 1–492) was codon optimized for the expression in E.coli; made in house; host or cells: E. coli BL21(DE3)
T2 sequence (P39051 whole entry, the tested form may be a part): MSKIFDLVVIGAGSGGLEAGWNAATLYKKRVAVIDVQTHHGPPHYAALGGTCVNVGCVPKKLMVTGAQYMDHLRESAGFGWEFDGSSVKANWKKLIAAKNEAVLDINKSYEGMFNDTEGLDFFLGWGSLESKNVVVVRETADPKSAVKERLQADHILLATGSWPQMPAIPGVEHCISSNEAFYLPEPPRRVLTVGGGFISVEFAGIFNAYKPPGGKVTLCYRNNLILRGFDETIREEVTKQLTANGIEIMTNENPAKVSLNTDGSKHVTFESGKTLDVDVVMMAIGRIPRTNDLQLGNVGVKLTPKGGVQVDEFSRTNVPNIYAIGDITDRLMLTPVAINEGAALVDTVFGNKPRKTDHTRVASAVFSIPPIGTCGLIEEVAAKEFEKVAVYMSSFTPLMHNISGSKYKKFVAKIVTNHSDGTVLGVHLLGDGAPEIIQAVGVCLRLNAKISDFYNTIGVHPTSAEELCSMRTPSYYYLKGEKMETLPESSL
Method: Compounds from 10 mM stock solutions were transferred to assay plates by acoustic transfer (EDC Biosystems, Milmont, CA). The TbTR luminescent assay was performed in 384-well white plate (Greiner Bio One, Frickenhausen, Germany). The following components were added to the plates to a final volume of 30 μL: 0.1 nM TR, 20 μM NADPH, 10 μM TS2 in 50 mM HEPES (pH 7.4), 40 mM NaCl, 0.01% BSA. After 60 min of incubation at room temperature the residual amount of NADPH was measured by addition of an equal volume of NADPH-Glo as per the manufacturer’s protocol and the luminescent signal was acquired by an EnVision plate reader (PerkinElmer, Waltham, MA). The DTNB assay was performed in a final volume of 50 μl by addition of 2 nM TR, 100 μM NADPH, 4 μM TS2 and 200 μM DTNB in 40 mM HEPES (pH 7.4), 1 mM EDTA, 0.01% BSA and 0.05% Tween-20. After 10 minutes of incubation at room temperature the absorbance signal (412 nm) was detected using the Safire2 plate reader (Tecan, Switzerland). The human glutathione reductase (hGR) activity assay was carried out as described by Turcano et al.[23]. Results were analyzed using Prism software (GraphPad, San Diego, CA) and Vortex (Dotmatics, Bioshops Stortford, UK). Dose-response curves were fitted by four-parameter logistic regression.
The TbTR enzyme enzyme was produced in bacteria, purified as described in materials and methods and used to develop an in vitro enzyme assay (Fig 1A). To measure TbTR activity, a luminescent assay was optimized starting from a design that we previously described. First we determined the linearity range of the NADPH detection signal via NADPH-Glo kit that was determined to be 50 μM (Fig 1B). The Km (apparent) value for TS2 was calculated using 1 nM TR in the presence of serial dilutions of TS2 and a fixed concentration of 40 μM NADPH. The luminescence signal was detected in the first 10 min of reaction. NADPH depletion, calculated using the NADPH standard curve (Fig 1B), allowed the determination of the apparent Km values by the Michaelis-Menten kinetic (Fig 1C). The Km for TS2 was calculated to be 4.0 ± 0.7 μM. To further optimize the assay, a time course experiment was carried out. Different concentrations of the TbTR enzyme, ranging from 0.025 to 0.2 nM, were used, while the TS2 concentration was fixed near the Km value (5 μM) and the NADPH concentration was 20 μM that falls within the linearity range observed for the NADPH standard curve. 0.1 nM TbTR at and 60 min of incubation were judged to be an optimal compromise for preserving the reaction linearity along with a good signal to background ratio (Fig 1D) and allowing a suitable time for the screening operations. The final conditions used for the screening were: 0.1 nM TbTR, 5 μM TS2, 20 μM NADPH with the incubation time of the reaction being 60 minutes.

TbTR [3] = target: T3, TbTR (Trypanosoma brucei brucei, UniProt P39051); experiment: SPR binding assay on immobilized TbTR
T3 construct: the gene coding for the enzyme (aa 1–492) was codon optimized for the expression in E.coli; made in house; host or cells: E. coli BL21(DE3)
T3 sequence (P39051 whole entry, the tested form may be a part): as above
Method: Surface Plasmon resonance (SPR) interaction analysis were performed using a Biacore T200 (GE Healthcare, Uppsala, Sweden). TbTR was immobilized on a CM4 chip by amine coupling according to manufacturer’s instructions (Amine Coupling Kit, GE Healthcare, Uppsala, Sweden). Briefly, the surface of the sensor chip was activated for 7 minutes using a mixture of 0.1 M N-hydroxy succinimide (NHS) and 0.4 M N-ethyl-N’-[3-dimethyl-aminopropyl] carbodiimide (EDC) then 30 μg/ml of […] in 10 mM sodium acetate (pH 4.5) was injected for 360 s at 10 μl/min, finally residual activated groups on the surface were blocked by a 7 min injection of 1 M ethanolamine (pH 8.5). A reference channel for background subtraction was prepared by activation with EDC/NHS mixture (0.1 M/0.4 M as per ligand immobilization), followed by blocking with 1 M ethanolamine. The binding of the selected hit to the immobilized ligand was evaluated by a multi-cycle kinetic procedure in PBS-P (GE Healthcare Lifescience) supplemented with 2% DMSO (Sigma Aldrich). The analyte was injected for 60 s at 50 μl/min until equilibrium and dissociation monitored for 600 s. A standard curve of DMSO was included for solvent correction.
Biomolecular binding events were reported as changes of resonance units (RUs) over time. The data were analyzed by the Biacore T200 evaluation software. The sensorgrams were obtained, by subtracting the signals of the reference channel to those of the TbTR-immobilized one, and corrected for DMSO interference using the DMSO standard curve. The binding affinity was evaluated from kinetic parameters (koff/kon) calculated according to a heterogeneous ligand binding model.

TbTR [4] = target: T3, TbTR; experiment: TS2 competition assay (TbTR luminescent assay); type: biochemical; details: 5 or 25 μM compound
Method: Competition experiments were performed at two different compound concentrations (5 μM and 25 μM) by TbTR luminescent assay. The apparent Km values for TS2 in presence of 20 μM NADPH were calculated using 1 nM TR after 10 min incubation. […] The luminescent signal was measured using the EnVision plate reader (PerkinElmer, USA). IC50, Vmax, and Km values were calculated using Prism software (GraphPad, San Diego, CA).

TbTR [5] = target: T3, TbTR; experiment: TbTR DTNB absorbance assay; type: biochemical
Method: as §1, §2, §3

physchem = type: physicochemical; details: pH 7.4, aqueous buffer
Method: The solubility testing was carried out as previously reported.

[6] = system: endogenous TbTR activity in T. brucei lysate; experiment: T. brucei lysate thiol formation assay; type: biochemical, Trypanosoma brucei; details: 200 μM NADPH, 50 μM TS2, 100 μM DTNB, 30 min, absorbance 412 nm; read-out: IC50, inhibition of endogenous TbTR activity in T. brucei lysate
Method: T. brucei parasites were grown on IMDM medium (Iscove’s Modified Dulbecco’s Medium) supplied with 3 gr/L sodium bicarbonate, 136 mg/L hypoxanthine, 39 mg/L thymidine, 28.2 mg/L bathocuprione sulfonic acid, 0.5 mM cysteine, 0.001% β-mercaptoethanol and 10% heat-inactivated Calf serum. 1.5 x 10^6 compound treated parasite per well were lysed using 1 mM EDTA, 40 mM Hepes pH 7.5, 50 mM Tris-HCl pH 7.5, 2% Triton-X100 and protease inhibitors cocktail (Sigma). 200 μM NADPH, 50 μM TS2, 100 μM DTNB were added in each well to trigger the TbTR activity. After 30 min incubation the absorbance signal (412 nm) was detected using the Safire2 plate reader (Tecan, Switzerland).

T. brucei parasites = experiment: T. brucei growth inhibition assay (CellTiter-Glo); type: cell-based; details: Trypanosoma brucei, 24 h treatment, read-out: IC50, anti-proliferative activity on T. brucei culture
Method: The anti-proliferative effect of testing compounds on T. brucei in vitro cultures was carried out by incubating compounds with 1.5 × 10^3 parasite per well followed by 24 incubation at 37°C and 5% CO2. The parasite viability was measured by CellTiter-Glo according to the manufacturer's instructions.

[7] = target: T4, Leishmania infantum TR (LiTR) (Leishmania infantum, UniProt A4HSF7); experiment: LiTR luminescent (NADPH-Glo) enzyme assay; type: biochemical
T4 construct: made in house
T4 sequence (A4HSF7 entry or part of it): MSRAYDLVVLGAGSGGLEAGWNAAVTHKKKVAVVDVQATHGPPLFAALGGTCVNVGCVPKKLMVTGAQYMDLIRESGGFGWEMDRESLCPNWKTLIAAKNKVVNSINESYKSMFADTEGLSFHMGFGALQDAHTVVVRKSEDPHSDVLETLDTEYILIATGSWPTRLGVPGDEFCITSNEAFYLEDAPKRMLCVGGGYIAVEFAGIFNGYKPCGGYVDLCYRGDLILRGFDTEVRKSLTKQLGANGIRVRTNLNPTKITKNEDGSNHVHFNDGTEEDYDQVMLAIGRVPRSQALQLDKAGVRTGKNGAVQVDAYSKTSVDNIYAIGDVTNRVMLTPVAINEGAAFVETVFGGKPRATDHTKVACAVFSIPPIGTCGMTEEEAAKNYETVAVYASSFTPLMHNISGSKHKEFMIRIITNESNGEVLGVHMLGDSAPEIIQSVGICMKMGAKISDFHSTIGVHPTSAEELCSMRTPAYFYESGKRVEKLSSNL
From the text: S5 Fig. inhibition of Leismania infantum trypanothione reductase (LiTR) by Compound 1. Each experimental point is the average of three replicates.
The following method was used to determine the inhibition of the LiTR activity:
L. infantum TR was cloned and purified as previously described.[1] Bovine serum albumin (BSA), NADPH, auranofin, hGR, oxidized glutathione (GSSG) and DTNB were purchased from Sigma-Aldrich (St. Louis, MO); oxidized trypanothione (TS2) was purchased from Bachem (Bubendorf, Switzerland); the NADPH-Glo kit was purchased from Promega (Madison, WI, U.S.A.). Compounds, dissolved in DMSO, were transferred to 384-well white plates (Greiner Bio One, Frickenhausen, Germany) using the acoustic droplet ejection technology (ATS-100, EDC Biosystems, U.S.A.) to reach the desired final concentration. […] After 60 min of incubation at room temperature, an equal volume of NADPH-Glo reagent was added and the luminescent signal was acquired by an EnVision plate reader […]
as §3, with “Switzerland). Results were analyzed using Prism software (GraphPad, San Diego, CA, U.S.A.) and Vortex (Dotmatics, Bioshops Stortford, UK).” for “Switzerland).”

[8] = TbTR assay IC50, luminescence assay, n=4, dose-response from 85 μM

| SMILES | IC50 [1] [µM] | activity against human glutathione reductase (hGR) [1] | IC50 ([2]; TbTR IC50, luminescence assay) [µM] | IC50 [2, 8] [µM] | Kd (TbTR [3]) [µM] | koff (TbTR [3]) [s⁻¹] | binding to TbTR (reversibility) (TbTR [3]; SPR, 0.3125 to 20 μM) | change in calculated Vmax (TbTR [4]) | mode of inhibition versus TS2 (TbTR [4]) | IC50 (TbTR [5]) [µM] | solubility (physchem) [µM] | IC50 [6] [µM] | IC50 (T. brucei parasites) [µM] | IC50 [7] [µM] | IC50 ([2]; luminescence assay, n=4, dose-response from 85 μM, read-out: TbTR assay IC50) [µM] |
| --- | --- | --- | --- | --- | --- | --- | --- | --- | --- | --- | --- | --- | --- | --- | --- |
| CN(CCCN1CN(c2ccccc2)C2(CCN(CC[C@@H]3CC[C@H]4C[C@@H]3C4(C)C)CC2)C1=O)CC1(O)CCN(C(=N)N)CC1 [Compound 1, 4-(((3-(8-(2-((1S,2S,5S)-6,6-dimethylbicyclo[3.1.1]heptan-2-yl)ethyl)-4-oxo-1-phenyl-1,3,8-triazaspiro[4.5]decan-3-yl)propyl)(methyl)amino)methyl)-4-hydroxypiperidine-1-carboximidamide] | > 50 | no activity was detected | 3.5 ± 2.2 | 3.5 ± 2.19 | 10.3 ± 2.9 | 0.035 ± 0.014 | reversible binding | No changes | competitive with TS2 | 0.966 ± 0.068 | 185 (≈ 113 µg/mL) | 5.7 ± 0.6 | 2.2 ± 2.4 | 3.8 ± 0.6 |  |
| O=C(CCCN1CCC2(CC1)C(=O)NCN2c1ccccc1)c1ccc(F)cc1 [Compound 5, Spiperone, reference compound] |  |  |  |  |  |  |  |  |  |  |  |  |  |  | > 85 |
| O=C(CCN1CN(c2ccccc2)C2(CCNCC2)C1=O)NC(c1ccccc1)c1ccccc1 [Compound 18] |  |  |  | > 85 |  |  |  |  |  |  |  |  |  |  |  |
